Laboratory results published in US20090264425A1, “CHEMICAL COMPOUNDS” (PFIZER LIMITED, priority 2004, published 2009).

Biological target: T1, HIV-1 reverse transcriptase (Human immunodeficiency virus type 1 group M subtype B, UniProt P04585)
T1 construct: purified recombinant HIV-1 reverse transcriptase (RT, EC, 2.7.7.49); made in house; host or cells: Escherichia coli
Assay: Inhibition of HIV-1 reverse transcriptase enzyme ([3H]-Flashplate enzyme assay, 384-well)
Format: biochemical
Conditions: purified recombinant HIV-1 RT expressed in Escherichia Coli; 5% final DMSO
Description: The activity of the compounds of the invention as reverse transcriptase inhibitors may be measured using the following assay.
Inhibition of HIV-1 Reverse Transcriptase Enzyme
The reverse transcriptase activity of the compounds of the invention may be assayed as follows. Using the purified recombinant HIV-1 reverse transcriptase (RT, EC, 2.7.7.49) obtained by expression in Escherichia Coli, a 384-well plate assay system was established for assaying a large number of samples using the [3H]-Flashplate enzyme assay system (NEN-SMP 410A) following the manufacturer's recommendations. The compounds were dissolved in 100% DMSO and diluted with the appropriate buffer to a 5% final DMSO concentration. The inhibitory activity was expressed in percent inhibition relative to the DMSO control.

N#Cc1cc(Cl)cc(Oc2cc(Cl)ccc2OCC(=O)N2CCc3ccc(S(=O)(=O)N4CCOCC4)cc3C2)c1 [Example 16]
IC50: 541 nM

Cc1cnccc1NC(=O)COc1cc(Cl)ccc1Oc1cc(Cl)cc(C#N)c1 [Example 50]
IC50: 5.68 nM

N#Cc1cc(Cl)cc(Oc2cc(Cl)ccc2OCC(=O)Nc2ccc(S(N)(=O)=O)cc2Cl)c1 [Example 9, N-[4-(Aminosulfonyl)-2-chlorophenyl]-2-[4-chloro-2-(3-chloro-5-cyanophenoxy)phenoxy]acetamide]
IC50: 6 nM

Cc1cc(CN(C)C(=O)COc2cc(Cl)ccc2Oc2cc(Cl)cc(C#N)c2)on1 [Example 25]
IC50: 2180 nM

N#Cc1cc(Cl)cc(Oc2cc(Cl)ccc2OCC(=O)N2CCCc3cc(S(N)(=O)=O)ccc32)c1 [Example 1, 1-{[4-Chloro-2-(3-chloro-5-cyanophenoxy)phenoxy]acetyl}-1,2,3,4-tetrahydroquinoline-6-sulfonamide]
IC50: 26.1 nM

Cc1nc(S(N)(=O)=O)ccc1NC(=O)COc1ccc(Cl)cc1Sc1cc(Cl)cc(C#N)c1 [Example 46, N-[6-(Aminosulfonyl)-2-methylpyridin-3-yl]-2-{4-chloro-2-[(3-chloro-5-cyanophenyl)thio]phenoxy}acetamide]
IC50: 27.7 nM
